Consider 28 compounds from US8143296B2, “Thiazole-based compound and inhibitor of T-type calcium channel containing the same” (Korea Institute of Science and Technology, priority 2006, dated 2012).

Series [1] addresses T1, α1G T-type calcium channel (Homo sapiens, UniProt O43497).
T1 construct: host or cells: HEK293
Kind of series: Assay for % inhibiting activity against T-type calcium channel using FDSS6000. In kind it is cell-based. To be noted: HEK293 cells expressing α1G; for inhibition at 10 µM: HEK293, 10 μM. The procedure:
In the present invention, in order to search an efficient inhibitor against T-type calcium channel, a primary assay for T-type calcium channel inhibiting activity was conducted by a high-efficient assay using FDSS6000, wherein mammal HEK293 cell lines (originated from human kidney carcinoma cells) which specifically expresses α1G of T-type calcium channel was used for primary assay. Through the primary assay, compounds which show meaningful inhibition effects were selected. The selected compounds were used in a second assay for T-type calcium channel inhibiting activity using electrophysiological whole cell patch clamp method, wherein mammal HEK293 cell lines (originated from human kidney carcinoma cells) which specifically expresses α1G of T-type calcium channel was used for the second assay.
At 12-24 hours before being used for this assay, cells of HEK293 cell line (α1G cell line: KCTC 10519BP, Korean Collection for Type Cultures), which stably express α1G T-type calcium channel and Kir2.1, were sub-cultured in a poly-L-lysine treated 96-well plate with the density of 4×10^4 per a well using a 96-well cell dispenser (Titertek). On the of assay, the 96-well plate to which the cells were attached were washed three times with HEPES buffer solution (150 mM of NaCl, 5 mM of KCl, 1 mM of MgCl2, 2 mM of CaCl2, 10 mM of HEPES, 10 mM of glucose; pH 7.4) using a 96-well plate automatic washing device (Bio Tek), then reacted with HEPES buffer solution containing 5 μM fluo-3/AM and 0.001% Pluronic F-127 under room temperature for 1 hour, to label with fluorescent dye, and then further washed two times with HEPES buffer solution.
Thereafter, at 10 minutes before the measurement using device FDSS6000, a washing with HEPES buffer solution containing 10 mM CaCl2 was conducted once more, and the final volume was adjusted to 81 μl. Besides the above 96-well plate containing the cells, additional two drug 96-well plates were provided, wherein the 96-well plates contain inhibiting drug and KCl (final concentration: 75 mM) for activating T-type calcium channel, respectively. Since most of cell-based HTS devices are equipped with a liquid application system for injection of drug, but have no liquid sucking system, the inhibiting drug to be tested and KCl were respectively provided at the five-times higher concentration in 10 mM CaCl2 HEPES buffer solution at the amount of 27 μl, diluted five-times at the final cell plate volume of 135 μl, and then used in this test. The concrete method of measurement using FDSS6000 was as follows: After recording the reference value of 20 seconds, the change of intracellular Ca^2+ concentration which induced by treatment of the inhibiting drug to be tested for 75 seconds followed by administration of KCl was measured, wherein the percentage (%) inhibition effect of the test drug, through estimating the area of ratio value of 340/380 in the control without treatment of the test drug as 100%. As a reference drug, mibefradil was used.
For accurate calcium-imagination, the light source of 4 xenon lamps in FDSS6000 were radiated to make the cells exposed selectively to the excitation wavelength (340 nm and 380 nm) by computer-controlled filter wheel. Data was obtained at interval of each 1.23 second. The emitter fluorescence light inflowed through long-pass filter was obtained as an average 340/380 ratio value for each well in the 96-wells by using CCD camera and digital fluorescence analyzer in FDSS6000. All image data and analyses were obtained by using FDSS6000-exclusive program provide from Hamamatsu Photonics.

Setting [2] is: Table 4 (Chemical Formula 3 series).
Setting [3] is: Table 3 (Chemical Formula 2 series).

T1 sequence (O43497 whole entry): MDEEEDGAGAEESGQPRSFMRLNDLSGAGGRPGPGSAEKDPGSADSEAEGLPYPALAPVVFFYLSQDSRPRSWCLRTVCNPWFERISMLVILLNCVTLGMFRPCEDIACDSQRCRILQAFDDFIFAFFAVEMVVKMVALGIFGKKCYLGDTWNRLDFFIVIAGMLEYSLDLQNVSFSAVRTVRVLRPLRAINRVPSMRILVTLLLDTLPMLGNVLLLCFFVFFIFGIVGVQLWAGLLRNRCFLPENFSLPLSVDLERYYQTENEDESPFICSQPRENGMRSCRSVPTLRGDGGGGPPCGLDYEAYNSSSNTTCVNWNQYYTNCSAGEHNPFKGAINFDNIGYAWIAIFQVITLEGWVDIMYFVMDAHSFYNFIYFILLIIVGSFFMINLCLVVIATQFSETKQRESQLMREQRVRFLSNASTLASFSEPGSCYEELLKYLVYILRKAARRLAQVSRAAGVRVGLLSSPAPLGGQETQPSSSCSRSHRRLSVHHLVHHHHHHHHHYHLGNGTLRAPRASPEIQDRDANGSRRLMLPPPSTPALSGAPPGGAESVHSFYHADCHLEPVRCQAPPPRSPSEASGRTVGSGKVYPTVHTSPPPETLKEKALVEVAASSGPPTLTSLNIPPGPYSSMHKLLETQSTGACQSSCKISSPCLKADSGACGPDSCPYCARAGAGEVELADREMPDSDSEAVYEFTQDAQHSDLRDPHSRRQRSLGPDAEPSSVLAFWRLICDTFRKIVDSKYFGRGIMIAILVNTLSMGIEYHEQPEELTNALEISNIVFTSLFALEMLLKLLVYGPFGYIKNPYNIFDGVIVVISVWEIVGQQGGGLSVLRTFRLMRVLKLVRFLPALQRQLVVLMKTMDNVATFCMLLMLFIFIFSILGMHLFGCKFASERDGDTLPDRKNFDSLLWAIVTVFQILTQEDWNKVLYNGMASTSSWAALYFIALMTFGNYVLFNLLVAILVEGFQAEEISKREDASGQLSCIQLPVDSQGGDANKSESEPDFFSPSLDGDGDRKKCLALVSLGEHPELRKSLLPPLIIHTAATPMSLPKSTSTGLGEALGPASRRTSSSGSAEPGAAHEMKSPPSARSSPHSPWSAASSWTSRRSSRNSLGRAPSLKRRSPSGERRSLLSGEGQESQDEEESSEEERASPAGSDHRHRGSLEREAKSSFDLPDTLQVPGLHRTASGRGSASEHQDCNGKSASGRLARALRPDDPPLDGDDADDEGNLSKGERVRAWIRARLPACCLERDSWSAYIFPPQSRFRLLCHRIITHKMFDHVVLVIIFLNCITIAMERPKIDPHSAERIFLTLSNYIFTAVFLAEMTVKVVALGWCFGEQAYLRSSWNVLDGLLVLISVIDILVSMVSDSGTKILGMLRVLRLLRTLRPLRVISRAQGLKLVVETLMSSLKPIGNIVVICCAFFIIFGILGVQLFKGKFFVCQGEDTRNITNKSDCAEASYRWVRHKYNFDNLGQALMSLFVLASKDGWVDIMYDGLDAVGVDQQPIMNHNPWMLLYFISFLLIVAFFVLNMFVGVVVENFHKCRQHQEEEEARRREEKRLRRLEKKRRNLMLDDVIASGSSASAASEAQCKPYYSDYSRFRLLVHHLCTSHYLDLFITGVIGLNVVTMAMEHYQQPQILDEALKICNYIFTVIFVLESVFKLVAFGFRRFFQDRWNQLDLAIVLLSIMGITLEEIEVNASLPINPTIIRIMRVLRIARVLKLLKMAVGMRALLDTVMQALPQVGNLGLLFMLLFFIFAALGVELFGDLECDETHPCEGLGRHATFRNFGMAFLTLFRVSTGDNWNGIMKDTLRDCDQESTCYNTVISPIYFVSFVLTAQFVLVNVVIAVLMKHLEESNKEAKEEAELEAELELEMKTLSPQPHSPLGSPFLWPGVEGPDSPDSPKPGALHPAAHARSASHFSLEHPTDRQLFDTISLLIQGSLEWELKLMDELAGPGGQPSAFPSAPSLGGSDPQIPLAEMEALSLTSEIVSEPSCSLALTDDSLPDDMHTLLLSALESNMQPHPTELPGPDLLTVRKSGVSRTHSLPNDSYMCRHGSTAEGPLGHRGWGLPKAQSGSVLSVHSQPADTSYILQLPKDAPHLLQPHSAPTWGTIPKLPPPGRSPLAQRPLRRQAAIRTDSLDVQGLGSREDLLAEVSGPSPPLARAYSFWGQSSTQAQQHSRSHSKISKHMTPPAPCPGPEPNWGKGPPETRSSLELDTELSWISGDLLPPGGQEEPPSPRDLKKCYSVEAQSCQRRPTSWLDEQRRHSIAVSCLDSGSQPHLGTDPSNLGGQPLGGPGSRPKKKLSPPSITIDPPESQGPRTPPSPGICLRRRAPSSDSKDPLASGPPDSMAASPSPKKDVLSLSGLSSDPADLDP

The compound `Br.NC(N)=Nc1nc(-c2cc(F)ccc2F)cs1` [KHG24391, 2-(4-(2,5-difluorophenyl)thiazole-2-yl)guanidine hydrobromide] showed a melting point of 252.1 °C. The inhibition at 10 µM in series [1] (setting [2]) came to 20.8%.
Take `Br.NC(N)=Nc1nc(-c2ccccc2)cs1` [KHG24380, 2-(4-phenylthiazole-2-yl)guanidine hydrobromide]: the melting point was determined as 209.5 °C. Also, the inhibition at 10 µM in series [1] (setting [2]) was 19.6%.
In turn, `Br.Cc1cccc(-c2csc(N=C(N)N)n2)c1` [KHG24382, 2-(4-m-tolylthiazole-2-yl)guanidine hydrobromide] came in with a melting point of 232.4 °C. In series [1] (setting [2]), the inhibition at 10 µM is 22.3%.
`Br.CCc1ccc(-c2csc(N=C(N)N)n2)cc1` [KHG24387, 2-(4-(4-ethylphenyl)thiazole-2-yl)guanidine hydrobromide] registered a melting point of 234.8 °C. Further, the inhibition at 10 µM in series [1] (setting [2]) was 17.1%.
In the case of `Br.NC(N)=Nc1nc(-c2cccc(Br)c2)cs1` [KHG24386, 2-(4-(3-bromophenyl)thiazole-2-yl)guanidine hydrobromide], the melting point came to 179.8 °C. Besides, in series [1] (setting [2]), the inhibition at 10 µM amounted to 10.9%.
With `Br.NC(N)=Nc1nc(-c2ccccc2F)cs1` [KHG24384, 2-(4-(2-fluorophenyl)thiazole-2-yl)guanidine hydrobromide], the melting point amounted to 229.6 °C. Besides, the inhibition at 10 µM in series [1] (setting [2]) was determined as 20.3%.
The like results for `Br.NC(N)=Nc1nc(-c2ccc(Cl)cc2Cl)cs1` [KHG24379, 2-(4-(2,4-dichlorophenyl)thiazole-2-yl)guanidine hydrobromide] were, in that order, 173 °C and 16.8%.
The like results for `Br.NC(N)=Nc1nc(-c2cccc(C(F)(F)F)c2)cs1` [KHG24385, 2-(4-(3-(trifluoromethyl)phenyl)thiazole-2-yl)guanidine hydrobromide] were, in that order, 224.8 °C and 15.8%.
As for `Cc1ccc(CCNC(=O)Cc2csc(N=C(N)N)n2)cc1.Cl` [KHG23188, 2-(2-(diaminomethyleneamino)thiazole-4-yl)-N-(4-methylphenethyl)acetamide hydrochloride], the melting point is 169.3 to 170.1 °C. Besides, the inhibition at 10 µM in series [1] (setting [3]) was 19.3%.
The like results for `Cc1ccc(NC(=O)Cc2csc(N=C(N)N)n2)c(Br)c1.Cl` [KHG23191, N-(2-bromo-4-methylphenyl)-2-(2-(diaminomethyleneamino)thiazole-4-yl)acetamide hydrochloride] were, in that order, 219.7 to 220.5 °C and 18%.
Turning to `Br.NC(N)=Nc1nc(-c2ccc(Br)cc2)cs1` [KHG24381, 2-(4-(4-bromophenyl)thiazole-2-yl)guanidine hydrobromide], the melting point is 278.5 °C. Moreover, the inhibition at 10 µM in series [1] (setting [2]) was 20.8%.
In turn, `Cl.NC(N)=Nc1nc(CC(=O)Nc2ccccc2)cs1` [KHG23177, 2-(2-(diaminomethyleneamino)thiazole-4-yl)-N-phenylacetamide hydrochloride] came in with a melting point of 197.8 to 198.1 °C. The inhibition at 10 µM in series [1] (setting [3]) worked out at 23.3%.
`Br.NC(N)=Nc1nc(-c2ccccc2Cl)cs1` [KHG24373, 2-(4-(2-chlorophenyl)thiazole-2-yl)guanidine hydrobromide]: the melting point turned out to be 211.9 °C. Also, the inhibition at 10 µM in series [1] (setting [2]) was determined as 21.7%.
For `Cl.NC(N)=Nc1nc(CC(=O)Nc2ccc(Cl)cc2F)cs1` [KHG23173, N-(4-chloro-2-fluorophenyl)-2-(2-(diaminomethyleneamino)thiazole-4-yl)acetamide hydrochloride], the melting point fell in the range of 237.2 to 239.8 °C. Besides, the inhibition at 10 µM in series [1] (setting [3]) was determined as 28.1%.
As to `Cl.NC(N)=Nc1nc(-c2ccc(Cl)cc2)cs1` [KHG24024, 2-(4-(4-chlorophenyl)thiazole-2-yl)guanidine hydrochloride], the melting point was found to be 264.9 °C. In addition, the inhibition at 10 µM in series [1] (setting [2]) came out at 13%.
With `Br.NC(N)=Nc1nc(-c2ccc(Cl)c(Cl)c2)cs1` [KHG24390, 2-(4-(3,4-dichlorophenyl)thiazole-2-yl)guanidine hydrobromide], the melting point was found to be 256.3 °C. In series [1] (setting [2]), the inhibition at 10 µM was 7.32%.
Turning to `Cl.N#Cc1ccc(NC(=O)Cc2csc(N=C(N)N)n2)cc1` [KHG23176, N-(4-cyanophenyl)-2-(2-(diaminomethyleneamino)thiazole-4-yl)acetamide hydrochloride], the melting point lay in the range of 218.4 to 219.4 °C. Moreover, the inhibition at 10 µM in series [1] (setting [3]) was 20.5%.
Compound `Cl.NC(N)=Nc1nc(CC(=O)Nc2ccc(Cl)cc2)cs1` [KHG23184, N-(4-chlorophenyl)-2-(2-(diaminomethyleneamino)thiazole-4-yl)acetamide hydrochloride] showed a melting point of 244.3 to 245 °C. Also, the inhibition at 10 µM in series [1] (setting [3]) was found to be 24.9%.
As to `Br.NC(N)=Nc1nc(-c2cccc(F)c2)cs1` [KHG24383, 2-(4-(3-fluorophenyl)thiazole-2-yl)guanidine hydrobromide], the melting point came out at 242.1 °C. The inhibition at 10 µM in series [1] (setting [2]) was determined as 21.6%.
`Cl.NC(N)=Nc1nc(CC(=O)Nc2cc(Cl)cc(Cl)c2)cs1` [KHG23185, 2-(2-(diaminomethyleneamino)thiazole-4-yl)-N-(3,5-dichlorophenyl)acetamide hydrochloride] had a melting point of 248.5 to 249.2 °C. Further, the inhibition at 10 µM in series [1] (setting [3]) came to 12.3%.
The compound `Cl.NC(N)=Nc1nc(-c2ccc(F)cc2F)cs1` [KHG24026, 2-(4-(2,4-difluorophenyl)thiazole-2-yl)guanidine hydrochloride] came in with a melting point of 248.9 °C. Further, the inhibition at 10 µM in series [1] (setting [2]) was found to be 19.8%.
`Cl.NC(N)=Nc1nc(CC(=O)Nc2ccc(F)cc2Cl)cs1` [KHG23169, N-(2-chloro-4-fluorophenyl)-2-(2-(diaminomethyleneamino)thiazole-4-yl)acetamide hydrochloride]: the melting point was 232.8 to 233.9 °C. Also, in series [1] (setting [3]), the inhibition at 10 µM stood at 23.2%.
`Cl.NC(N)=Nc1nc(CC(=O)NCc2ccc(F)c(F)c2)cs1` [KHG23189, 2-(2-(diaminomethyleneamino)thiazole-4-yl)-N-(3,4-difluorobenzyl)acetamide hydrochloride] displayed a melting point of 206.9 to 207.6 °C. Besides, the inhibition at 10 µM in series [1] (setting [3]) amounted to 19.3%.
`COc1ccc(NC(=O)Cc2csc(N=C(N)N)n2)cc1F.Cl` [KHG23179, 2-(2-(diaminomethyleneamino)thiazole-4-yl)-N-(3-fluoro-4-methoxyphenyl)acetamide hydrochloride]: the melting point was in the range of 225.8 to 228.4 °C. The “% Inhibition [α1G, 10 μM) using FDSS6000” value in series [1] (10 μM, Table 3 (Chemical Formula 2 series), hydrochloride) is recorded as 30.76%.
With `Br.NC(N)=Nc1nc(-c2cccc(Cl)c2)cs1` [KHG24388, 2-(4-(3-chlorophenyl)thiazole-2-yl)guanidine hydrobromide], the melting point came out at 210.4 °C. Also, the inhibition at 10 µM in series [1] (setting [2]) turned out to be 10.8%.
On to `Cc1ccc(NC(=O)Cc2csc(N=C(N)N)n2)c(Cl)c1.Cl` [KHG23174, N-(2-chloro-4-methylphenyl)-2-(2-(diaminomethyleneamino)thiazole-4-yl)acetamide hydrochloride], for which the melting point was 218.6 to 220 °C. In addition, the inhibition at 10 µM in series [1] (setting [3]) is 18.8%.
Regarding `Cl.NC(N)=Nc1nc(CC(=O)Nc2ccc(F)cc2)cs1` [KHG23171, 2-(2-(diaminomethyleneamino)thiazole-4-yl)-N-(4-fluorophenyl)acetamide hydrochloride], the melting point was 207.3 to 208.2 °C. Besides, the inhibition at 10 µM in series [1] (setting [3]) amounted to 21.5%.
Consider `Cl.NC(N)=Nc1nc(CC(=O)Nc2ccc(Br)cc2)cs1` [KHG23178, N-(4-bromophenyl)-2-(2-(diaminomethyleneamino)thiazole-4-yl)acetamide hydrochloride], for which the melting point lay within 246.4 to 247 °C. Also, the inhibition at 10 µM in series [1] (setting [3]) was 34.5%.
